In PubChem BioAssay AID324 (DTP/NCI, 2004):
Inconclusive results and toxic doses are left out.

Test system: CD2F1 mice, AMSA-resistant P388 leukemia ip, median survival T/C
Experiment: NCI In Vivo Anticancer Drug Screen. Data for tumor model P388 Leukemia resistant to AMSA; NSC 249992 (intraperitoneal) in CD2F1 (CDF1) mice
Conditions: endpoint: median survival time, higher = longer survival
Protocol: The antitumor activity of compounds was measured in mice bearing transplantable tumors. Survival or tumor size were measured and the results are expressed as the measurement made in the treated group (T) divided by the measurement made in the vehicle treated control group (C). The tumor model used in this assay is P388 Leukemia resistant to AMSA; NSC 249992 (intraperitoneal) in CD2F1 (CDF1) mice

[1] = dose: 6.48 mg/kg/injection, schedule: Q04DX003 (ip), vehicle: water
[2] = dose: 10.8 mg/kg/injection, schedule: Q04DX003 (ip), vehicle: water
[3] = dose: 18.0 mg/kg/injection, schedule: Q04DX003 (ip), vehicle: water

Compound: CCN(CC)CCNc1ccc(C)c2sc3ccccc3c(=O)c12
- T/C (dose: 16.2 mg/kg/injection, schedule: Q01DX005 (ip), vehicle: saline): 101 % of control
- T/C (dose: 19.4 mg/kg/injection, schedule: Q01DX005 (ip), vehicle: water): 92 % of control
- T/C (dose: 27.0 mg/kg/injection, schedule: Q01DX005 (ip), vehicle: saline): 101 % of control
- T/C (dose: 45.0 mg/kg/injection, schedule: Q01DX005 (ip), vehicle: saline): 99 % of control
- T/C (dose: 54.0 mg/kg/injection, schedule: Q01DX005 (ip), vehicle: water): 90 % of control
- T/C (dose: 75.0 mg/kg/injection, schedule: Q01DX005 (ip), vehicle: saline): 94 % of control
- T/C (dose: 90.0 mg/kg/injection, schedule: Q01DX005 (ip), vehicle: water): 89 % of control
- T/C (dose: 125.0 mg/kg/injection, schedule: Q01DX005 (ip), vehicle: saline): 90 % of control

Compound: CC[C@]1(O)C[C@H]2CN(CCc3c([nH]c4ccccc34)[C@@](C(=O)OC)(c3cc4c(cc3OC)N(C=O)[C@H]3[C@@](O)(C(=O)OC)[C@H](OC(C)=O)[C@]5(CC)C=CCN6CC[C@]43[C@@H]65)C2)C1
- T/C (dose: 0.72 mg/kg/injection, schedule: Q04DX003 (ip), vehicle: saline): 176 % of control
- T/C (dose: 1.0 mg/kg/injection, schedule: Q04DX003 (ip), vehicle: saline): 102 % of control
- T/C (dose: 1.2 mg/kg/injection, schedule: Q04DX003 (ip), vehicle: saline): 201 % of control
- T/C (dose: 2.0 mg/kg/injection, schedule: Q04DX003 (ip), vehicle: saline): 193 % of control

Compound: C[n+]1ccc(Nc2ccc(NC(=O)c3ccc(Nc4cc[n+](C)c5ccc(N)cc45)cc3)cc2)cc1
- T/C (dose: 1.73 mg/kg/injection, schedule: Q04DX003 (ip), vehicle: water): 155 % of control
- T/C (dose: 4.8 mg/kg/injection, schedule: Q04DX003 (ip), vehicle: water): 154 % of control
- T/C (dose: 8.0 mg/kg/injection, schedule: Q04DX003 (ip), vehicle: water): 182 % of control

Compound: COc1cccc2c1C(=O)c1c(O)c3c(c(O)c1C2=O)C[C@@](O)(C(C)=O)C[C@@H]3OC1CC(NCc2ccccc2)C(O)C(C)O1 (some centres undefined)
- T/C [1]: 113 % of control
- T/C [2]: 117 % of control
- T/C [3]: 104 % of control

Compound: CC(=O)C1(O)Cc2c(O)c3c(c(O)c2C(OC2CC(N)C(O)C(C)O2)C1)C(=O)c1ccccc1C3=O (centres undefined)
- T/C (dose: 0.13 mg/kg/injection, schedule: Q04DX003 (ip), vehicle: water): 111 % of control
- T/C (dose: 0.21 mg/kg/injection, schedule: Q04DX003 (ip), vehicle: water): 122 % of control
- T/C (dose: 0.36 mg/kg/injection, schedule: Q04DX003 (ip), vehicle: water): 124 % of control
- T/C (dose: 0.6 mg/kg/injection, schedule: Q04DX003 (ip), vehicle: water): 105 % of control

Compound: COc1cc([C@@H]2c3cc4c(cc3[C@@H](OC3OC5COC(C)OC5C(O)C3O)[C@H]3COC(=O)[C@H]23)OCO4)cc(OC)c1O (some centres undefined)
- T/C (dose: 6.24 mg/kg/injection, schedule: Q04DX003 (ip), vehicle: water): 124 % of control
- T/C (dose: 17.3 mg/kg/injection, schedule: Q04DX003 (ip), vehicle: water): 118 % of control
- T/C (dose: 18.0 mg/kg/injection, schedule: Q04DX003 (ip), vehicle: Klucel (hydroxypropylcellulose) (HPC)): 103 % of control
- T/C (dose: 27.0 mg/kg/injection, schedule: Q04DX003 (ip), vehicle: Klucel (hydroxypropylcellulose) (HPC)): 91 % of control
- T/C (dose: 28.8 mg/kg/injection, schedule: Q04DX003 (ip), vehicle: clinical formulation): 167 % of control
- T/C (dose: 28.8 mg/kg/injection, schedule: Q04DX003 (ip), vehicle: water): 162 % of control
- T/C (dose: 48.0 mg/kg/injection, schedule: Q04DX003 (ip), vehicle: water): 108 % of control
- T/C (dose: 60.0 mg/kg/injection, schedule: Q04DX003 (ip), vehicle: Klucel (hydroxypropylcellulose) (HPC)): 87 % of control

Compound: CCC1(O)CC(OC2CC(N(C)C)C(OC3CC4OC5CC(=O)C(C)OC5OC4C(C)O3)C(C)O2)c2c(cc3c(c2O)C(=O)c2c(O)ccc(O)c2C3=O)C1C(=O)OC (centres undefined)
- T/C (dose: 0.64 mg/kg/injection, schedule: Q04DX003 (ip), vehicle: water): 108 % of control
- T/C (dose: 0.86 mg/kg/injection, schedule: Q04DX003 (ip), vehicle: water): 112 % of control
- T/C (dose: 1.08 mg/kg/injection, schedule: Q04DX003 (ip), vehicle: water): 107 % of control
- T/C (dose: 1.44 mg/kg/injection, schedule: Q04DX003 (ip), vehicle: water): 115 % of control
- T/C (dose: 1.8 mg/kg/injection, schedule: Q04DX003 (ip), vehicle: water): 117 % of control
- T/C (dose: 2.4 mg/kg/injection, schedule: Q04DX003 (ip), vehicle: water): 124 % of control
- T/C (dose: 5.0 mg/kg/injection, schedule: Q04DX003 (ip), vehicle: water): 113 % of control

Compound: CCC1(O)CC2CN(CCc3c([nH]c4ccccc34)C(C(=O)OC)(c3cc4c(cc3OC)N(C)C3C(O)(C(N)=O)C(O)C5(CC)C=CCN6CCC43C65)C2)C1 (centres undefined) (tested in a mixture with another compound)
- T/C (dose: 0.5 mg/kg/injection, schedule: Q04DX003 (ip), vehicle: clinical formulation): 150 % of control
- T/C (dose: 0.83 mg/kg/injection, schedule: Q04DX003 (ip), vehicle: clinical formulation): 162 % of control

Compound: COc1c(O)c2c(c3cc(C(=O)N4CCc5c4c(O)c(OC)c4[nH]c(C(=O)N6CC7CC78C6=CC(=O)c6[nH]cc(C)c68)cc54)[nH]c13)CCN2C(N)=O (centres undefined)
- T/C (dose: 0.04 mg/kg/injection, schedule: Q01DX001 (ip), vehicle: DMSO): 118 % of control
- T/C (dose: 0.06 mg/kg/injection, schedule: Q01DX001 (ip), vehicle: DMSO): 123 % of control
- T/C (dose: 0.18 mg/kg/injection, schedule: Q01DX001 (ip), vehicle: DMSO): 109 % of control

Compound: CN(C)c1ccc(Nc2c3ccccc3nc3ccccc23)cc1
- T/C (dose: 13.0 mg/kg/injection, schedule: Q04DX003 (ip), vehicle: saline with Tween-80): 100 % of control
- T/C (dose: 21.6 mg/kg/injection, schedule: Q04DX003 (ip), vehicle: saline with Tween-80): 98 % of control
- T/C (dose: 25.9 mg/kg/injection, schedule: Q04DX003 (ip), vehicle: saline): 101 % of control
- T/C (dose: 36.0 mg/kg/injection, schedule: Q04DX003 (ip), vehicle: saline with Tween-80): 96 % of control
- T/C (dose: 43.2 mg/kg/injection, schedule: Q04DX003 (ip), vehicle: saline): 104 % of control
- T/C (dose: 60.0 mg/kg/injection, schedule: Q04DX003 (ip), vehicle: saline with Tween-80): 100 % of control
- T/C (dose: 72.0 mg/kg/injection, schedule: Q04DX003 (ip), vehicle: saline): 100 % of control
- T/C (dose: 100.0 mg/kg/injection, schedule: Q04DX003 (ip), vehicle: saline with Tween-80): 103 % of control

Compound: COc1cc2c[n+](C)c3c4cc5c(cc4ccc3c2cc1OC)OCO5
- T/C (dose: 25.92 mg/kg/injection, schedule: Q04DX003 (ip), vehicle: distilled water + Tween-80): 118 % of control
- T/C (dose: 43.2 mg/kg/injection, schedule: Q04DX003 (ip), vehicle: distilled water + Tween-80): 123 % of control
- T/C (dose: 120.0 mg/kg/injection, schedule: Q04DX003 (ip), vehicle: distilled water + Tween-80): 115 % of control

Compound: CC(CN1CC(=O)NC(=O)C1)N1CC(=O)NC(=O)C1 (centres undefined)
- T/C (dose: 300.0 mg/kg/injection, schedule: Q04DX003 (ip), vehicle: saline): 198 % of control

Compound: COc1cccc2c1C(=O)c1c(O)c3c(c(O)c1C2=O)C[C@@](O)(C(=O)CO)C[C@@H]3OC1CC([N+](C)(C)C)C(O)C(C)O1 (some centres undefined)
- T/C (dose: 3.89 mg/kg/injection, schedule: Q04DX003 (ip), vehicle: water): 103 % of control
- T/C [1]: 111 % of control
- T/C [2]: 107 % of control
- T/C [3]: 108 % of control
- T/C (dose: 30.0 mg/kg/injection, schedule: Q04DX003 (ip), vehicle: water): 100 % of control
